Assay: xn = mol fraction of the nth substance listed
Conditions: 101.3 kPa

CCCCCCCC(=O)[O-].c1c[nH+]c[nH]1 + CC#N
viscosity [mPa·s]
Conditions | x2 = 0 | x2 = 0.1044 | x2 = 0.1986 | x2 = 0.298 | x2 = 0.4005 | x2 = 0.499 | x2 = 0.5995 | x2 = 0.6924 | x2 = 0.7988 | x2 = 0.8996
293.15 K | 88.5 | 66 | 50.42 | – | 25.96 | – | – | 5.8 | 2.747 | –
298.15 K | 71.3 | 54.3 | 41.88 | 32 | 22.7 | 16.11 | 10 | 6.3 | 3.3 | 1.199
303.15 K | – | – | 35.3 | 27.47 | 20.17 | 14.67 | – | 5.6 | 2.402 | 1.21
308.15 K | 45.3 | 37 | 30.04 | 23.68 | 17.89 | – | 8.4 | 5.5 | 2.808 | 1.241
313.15 K | 36.92 | 31.4 | 26.1 | 20.83 | 15.6 | 11.4 | 7.4 | 4.4 | 2.23 | 1.397
318.15 K | 30.56 | 26.31 | 22.3 | – | – | 10.7 | 7.51 | 5.1 | 3.1 | 1.77
323.15 K | 25.33 | 22.52 | 19.55 | 16.21 | 13.2 | – | – | 5.38 | 3.223 | 1.6

CCCCCCCC(=O)[O-].c1c[nH+]c[nH]1 + CCCCCCCCO
viscosity [mPa·s]
Conditions | x2 = 0 | x2 = 0.1011 | x2 = 0.1999 | x2 = 0.2991 | x2 = 0.4 | x2 = 0.5007 | x2 = 0.6005 | x2 = 0.6999 | x2 = 0.799 | x2 = 0.8997
293.15 K | 88.5 | 78 | 64.4 | 51.03 | – | 30.85 | – | 18 | 13.4 | 10.5
298.15 K | 71.3 | 63.2 | 52.31 | 41.9 | – | – | – | 15.39 | 11.7 | –
303.15 K | 56.48 | 50.26 | 42.2 | 34.44 | 27.5 | 21.67 | – | 13.24 | 10 | 8.33
308.15 K | 45.3 | – | 34.63 | 28.56 | 23.23 | 18.76 | 14.95 | – | 9.4 | 7.64
313.15 K | 36.92 | 33.14 | 28.5 | 23.44 | 19.4 | 15.57 | – | 9.79 | 7.5 | 5.94
318.15 K | 30.56 | – | 23.63 | 19.8 | 16.4 | 13.05 | 10.7 | 8.46 | – | –
323.15 K | 25.33 | – | 20.17 | – | 14.21 | 11.6 | 9.4 | 7.48 | 5.9 | –

CCCCCCCC(=O)[O-].c1c[nH+]c[nH]1 + CCO
viscosity [mPa·s]
Conditions | x2 = 0 | x2 = 0.1043 | x2 = 0.1984 | x2 = 0.301 | x2 = 0.4 | x2 = 0.4786 | x2 = 0.5999 | x2 = 0.7006 | x2 = 0.7999 | x2 = 0.8989
293.15 K | 88.5 | 68.7 | – | – | 29.8 | 22.9 | – | 10.32 | 6.03 | 3.236
298.15 K | 71.3 | 55.78 | 44.5 | 34 | 25.5 | 20 | 13.3 | 9.32 | 5.47 | –
303.15 K | 56.48 | – | 36.53 | 28.9 | 22.3 | 17.8 | – | 8.4 | 4.93 | –
308.15 K | 45.3 | 36.81 | 30.43 | 24.8 | 19.9 | 16.4 | 11.4 | 7.77 | 4.54 | 2.471
313.15 K | – | 31 | 26.09 | – | 17.2 | 14 | – | – | 4.19 | 2.278
318.15 K | 30.56 | 26.2 | 22.4 | 18.8 | 15.3 | 12.6 | – | 6.3 | 3.96 | –
323.15 K | 25.33 | 22.3 | 19.6 | 16.7 | 14.1 | 12 | 8.9 | 6.4 | 4.43 | –

CCCCCCCC(=O)[O-].c1c[nH+]c[nH]1 + O
viscosity [mPa·s]
Conditions | x2 = 0 | x2 = 0.0989 | x2 = 0.1964 | x2 = 0.3042 | x2 = 0.4091 | x2 = 0.5119 | x2 = 0.6017 | x2 = 0.6643 | x2 = 0.7995 | x2 = 0.8154
293.15 K | 88.5 | 67.9 | 58.6 | – | – | 45.7 | – | 34.9 | 22.18 | 20.63
298.15 K | 71.3 | 54.06 | 46.3 | 43.3 | 41.1 | – | 32.99 | 29.09 | – | 17.59
303.15 K | 56.48 | 41.7 | 36.57 | – | 33 | 30.4 | 27.23 | – | 16 | 14.75
308.15 K | 45.3 | 33.19 | 29.22 | 27.6 | 26.5 | 25 | 22.3 | 20.32 | 13.52 | 12.62
313.15 K | 36.92 | 27.32 | – | 22.8 | 21.89 | 20.82 | 18.94 | 17.17 | 11.72 | –
318.15 K | 30.56 | – | 20.39 | – | 18.6 | 17.87 | – | 14.9 | 10.4 | –
323.15 K | – | – | 17.55 | – | 16.17 | 15.72 | 14.35 | 13.4 | 9.76 | –

CC#N + c1c[nH+]c[nH]1.CCCCCCCC(=O)[O-]
x1 = 1
Conditions | viscosity [mPa·s]
293.15 K | 0.35
303.15 K | 0.325
308.15 K | 0.292
313.15 K | 0.279
318.15 K | 0.245

CCCCCCCCO + c1c[nH+]c[nH]1.CCCCCCCC(=O)[O-]
x1 = 1
Conditions | viscosity [mPa·s]
298.15 K | 7.84
303.15 K | 6.42
308.15 K | 5.34
313.15 K | 4.66
318.15 K | 3.7
323.15 K | 2.84

CCO + c1c[nH+]c[nH]1.CCCCCCCC(=O)[O-]
x1 = 1
Conditions | viscosity [mPa·s]
298.15 K | 1.1
308.15 K | 0.91
313.15 K | 0.83
318.15 K | 0.72
323.15 K | 0.615

O + c1c[nH+]c[nH]1.CCCCCCCC(=O)[O-]
x1 = 1
Conditions | viscosity [mPa·s]
298.15 K | 0.89
303.15 K | 0.797
323.15 K | 0.556

Reference: a compilation of properties of binary mixtures (doi:10.1021/je100671v)
